# “And” between values parts separate entries of the source, which are not always exact repeats. Equal values may be shown once.
# Molecular target: T1, human TG2 (Homo sapiens, UniProt P21980)
# T1 sequence (P21980 1-687): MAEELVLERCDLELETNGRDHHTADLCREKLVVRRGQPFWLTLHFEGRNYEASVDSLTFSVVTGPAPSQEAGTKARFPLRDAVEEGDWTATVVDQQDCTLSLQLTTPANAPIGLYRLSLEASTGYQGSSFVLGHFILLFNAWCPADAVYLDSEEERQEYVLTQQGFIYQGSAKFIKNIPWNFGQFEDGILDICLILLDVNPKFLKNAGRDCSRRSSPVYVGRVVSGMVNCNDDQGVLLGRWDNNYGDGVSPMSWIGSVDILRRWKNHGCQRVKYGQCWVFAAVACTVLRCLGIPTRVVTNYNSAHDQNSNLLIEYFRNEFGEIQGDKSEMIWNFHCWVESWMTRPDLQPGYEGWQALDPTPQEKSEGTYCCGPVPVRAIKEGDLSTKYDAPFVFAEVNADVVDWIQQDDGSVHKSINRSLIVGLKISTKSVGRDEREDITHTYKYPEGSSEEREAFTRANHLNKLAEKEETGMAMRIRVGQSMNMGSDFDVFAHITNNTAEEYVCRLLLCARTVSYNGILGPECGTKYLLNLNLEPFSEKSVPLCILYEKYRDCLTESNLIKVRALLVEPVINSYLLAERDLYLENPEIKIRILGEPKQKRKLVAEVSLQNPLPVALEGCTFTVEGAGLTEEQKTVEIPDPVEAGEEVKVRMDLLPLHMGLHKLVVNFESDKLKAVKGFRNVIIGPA
# Test: fluorescent screening assay for human TG2
# Format: biochemical
# Conditions: 20 nM TG2, 8 μM N,N-dimethylated Casein, 16 μM KxD, pH 7.4, 37° C
# Protocol: (§1) The fluorescent screening assay for human TG2 was performed as described herein: Assay conditions were 20 nM TG2, 8 μM N,N-dimethylated Casein (NMC) and 16 μM K×D (used for all transglutaminase assays) in 25 mM Hepes, pH 7.4, 250 mM NaCl, 2 mM MgCl2, 0.5 mM CaCl2, 0.2 mM DTT, 0.05% Pluronic F-127 at 37° C. A time point was taken with a microplate reader (Safire or Ultra, Tecan; ex: 350 nm, em: 535 nm) every 3 minutes for up to 2 hours and the initial linear reaction progress was used to determine the reaction velocity as a measure for enzyme activity. Assay conditions were identical for human TG6 and similar for human TG1 and mouse TG2 apart from enzyme concentration (mTG2 at 5 nM; TG1 at 10 nM) and CaCl2 concentration (0.2 mM for mTG2; 0.05 mM for TG1). Factor XIIIa was activated using 0.1 μg/μl thrombin (Sigma) in 35 mM Tris pH 8.0 for 20 min at 30° C. and the transamidation reaction was performed with 20 nM Factor XIIIa in 50 mM Tris pH 8.0, 1.25 mM CaCl2, 0.05% Pluronic, 0.2 mM DTT. TG3 was activated with 0.02 μg/μl thrombin under the same conditions as Factor XIIIa and assay conditions were 10 nM TG3 in 50 mM Hepes, pH 8, 20 mM CaCl2, 0.2 mM DTT, 0.05% Pluronic F-127.
# as §1, with “A” for “The”
row,Structure (SMILES),IC50
1,C=CC(=O)Nc1ccc(S(=O)(=O)N2CCN(c3ncccn3)CC2)cc1 [N-[4-(4-Pyrimidin-2-yl-piperazine-1-sulfonyl)-phenyl]-acrylamide],< 100 nM and 100 to 1000 nM
2,C=CC(=O)Nc1ccc(S(=O)(=O)N2CCN(c3nccs3)CC2)cc1 [N-[4-(4-Thiazol-2-yl-piperazine-1-sulfonyl)-phenyl]-acrylamide],100 to 1000 nM and < 100 nM
3,"C=CC(=O)Nc1ccc(S(=O)(=O)N2CCN(c3ncnc4ccsc34)CC2)cc1 [N-[4-(4-Thieno[3,2-d]pyrimidin-4-yl-piperazine-1-sulfonyl)-phenyl]-acrylamide]",< 100 nM and 100 to 1000 nM
4,"C=CC(=O)Nc1ccc(S(=O)(=O)N2CCc3cc(S(=O)(=O)N(C)C)ccc32)cc1 [N-[4-(5-Dimethylsulfamoyl-2,3-dihydro-indole-1-sulfonyl)-phenyl]-acrylamide]",100 to 1000 nM and < 100 nM
5,C=CC(=O)Nc1ccc(S(=O)(=O)N2CCNCC2)cc1 [N-[4-(piperazine-1-sulfonyl)-phenyl]acrylamide],1000 to 25000 nM
6,C=CC(=O)Nc1cccc(S(=O)(=O)N2CCN(CCCc3ccccc3)CC2)c1 [N-{3-[4-(3-Phenyl-propyl)-piperazine-1-sulfonyl]-phenyl}-acrylamide],1000 to 25000 nM
7,C=CC(=O)Nc1cccc(S(=O)(=O)N2CCN(CCCCc3ccccc3)CC2)c1 [N-{3-[4-(4-Phenyl-butyl)-piperazine-1-sulfonyl]-phenyl}-acrylamide],1000 to 25000 nM
8,C=CC(=O)Nc1ccc(S(=O)(=O)N2CCCC2c2ccc(C(F)(F)F)cc2)cc1 (centres unmarked) [N-{4-[2-(4-Trifluoromethyl-phenyl)-pyrrolidine-1-sulfonyl]-phenyl}-acrylamide],1000 to 25000 nM
9,C=CC(=O)Nc1ccc(S(=O)(=O)N2CCNC(c3ccc(C)o3)C2)cc1 (centres unmarked) [N-{4-[3-(5-Methyl-furan-2-yl)-piperazine-1-sulfonyl]-phenyl}-acrylamide],1000 to 25000 nM
10,"C=CC(=O)Nc1ccc(S(=O)(=O)N2CCN(C(=O)N3C[C@@H](C)O[C@@H](C)C3)CC2)cc1 [N-{4-[4-(2,6-Dimethyl-morpholine-4-carbonyl)-piperazine-1-sulfonyl]-phenyl}-acrylamide]",100 to 1000 nM and < 100 nM
11,C=CC(=O)Nc1ccc(S(=O)(=O)N2CCN(c3ccnc(Cl)n3)CC2)cc1 [N-{4-[4-(2-Chloro-pyrimidin-4-yl)-piperazine-1-sulfonyl]-phenyl}-acrylamide],< 100 nM and 100 to 1000 nM
12,C=CC(=O)Nc1ccc(S(=O)(=O)N2CCN(c3cccc4nc(C)ccc34)CC2)cc1 [N-{4-[4-(2-Methyl-quinolin-5-yl)-piperazine-1-sulfonyl]-phenyl}-acrylamide],< 100 nM and 100 to 1000 nM
13,C=CC(=O)Nc1ccc(S(=O)(=O)N2CCN(C(=O)Cc3ccc4ccccc4c3)CC2)cc1 [N-{4-[4-(2-Naphthalen-2-yl-acetyl)-piperazine-1-sulfonyl]-phenyl}-acrylamide],100 to 1000 nM and < 100 nM
14,C=CC(=O)Nc1ccc(S(=O)(=O)N2CCN(C(=O)C3CC3c3ccccc3)CC2)cc1 (centres unmarked) [N-{4-[4-(2-Phenyl-cyclopropanecarbonyl)-piperazine-1-sulfonyl]-phenyl}-acrylamide],100 to 1000 nM and < 100 nM
15,C=CC(=O)Nc1ccc(S(=O)(=O)N2CCN(c3ncccc3C)CC2)cc1 [N-{4-[4-(3-Methyl-pyridin-2-yl)-piperazine-1-sulfonyl]-phenyl}-acrylamide],100 to 1000 nM and < 100 nM
16,C=CC(=O)Nc1ccc(S(=O)(=O)N2CCN(C(=O)CCc3ccccn3)CC2)cc1 [N-{4-[4-(3-Pyridin-2-yl-propionyl)-piperazine-1-sulfonyl]-phenyl}-acrylamide],100 to 1000 nM and < 100 nM

row,Structure (SMILES),IC50
1,C=CC(=O)Nc1ccc(S(=O)(=O)N2CCN(c3ncccc3C(F)(F)F)CC2)cc1 [N-{4-[4-(3-Trifluoromethyl-pyridin-2-yl)-piperazine-1-sulfonyl]-phenyl}-acrylamide],100 to 1000 nM and < 100 nM
2,"C=CC(=O)Nc1ccc(S(=O)(=O)N2CCN(C(=O)N3CCC(F)(F)CC3)CC2)cc1 [N-{4-[4-(4,4-Difluoro-piperidine-1-carbonyl)-piperazine-1-sulfonyl]-phenyl}-acrylamide]",100 to 1000 nM and < 100 nM
3,"C=CC(=O)Nc1ccc(S(=O)(=O)N2CCN(c3nc(C)cc(C)n3)CC2)cc1 [N-{4-[4-(4,6-Dimethyl-pyrimidin-2-yl)-piperazine-1-sulfonyl]-phenyl}-acrylamide]",< 100 nM and 100 to 1000 nM
4,C=CC(=O)Nc1ccc(S(=O)(=O)N2CCN(c3nccc(OC)n3)CC2)cc1 [N-{4-[4-(4-Methoxy-pyrimidin-2-yl)-piperazine-1-sulfonyl]-phenyl}-acrylamide],< 100 nM and 100 to 1000 nM
5,C=CC(=O)Nc1ccc(S(=O)(=O)N2CCN(c3cc(C)ccn3)CC2)cc1 [N-{4-[4-(4-Methyl-pyridin-2-yl)-piperazine-1-sulfonyl]-phenyl}-acrylamide],< 100 nM and 100 to 1000 nM
6,C=CC(=O)Nc1ccc(S(=O)(=O)N2CCN(c3nccc(C(F)(F)F)n3)CC2)cc1 [N-{4-[4-(4-Trifluoromethyl-pyrimidin-2-yl)-piperazine-1-sulfonyl]-phenyl}-acrylamide],< 100 nM and 100 to 1000 nM
7,C=CC(=O)Nc1ccc(S(=O)(=O)N2CCN(c3ccc(Cl)cn3)CC2)cc1 [N-{4-[4-(5-Chloro-pyridin-2-yl)-piperazine-1-sulfonyl]-phenyl}-acrylamide],< 100 nM and 100 to 1000 nM
8,C=CC(=O)Nc1ccc(S(=O)(=O)N2CCN(c3ccc(C)cn3)CC2)cc1 [N-{4-[4-(5-Methyl-pyridin-2-yl)-piperazine-1-sulfonyl]-phenyl}-acrylamide],< 100 nM and 100 to 1000 nM
9,C=CC(=O)Nc1ccc(S(=O)(=O)N2CCN(c3cccc(C)n3)CC2)cc1 [N-{4-[4-(6-Methyl-pyridin-2-yl)-piperazine-1-sulfonyl]-phenyl}-acrylamide],100 to 1000 nM and < 100 nM
10,C=CC(=O)Nc1ccc(S(=O)(=O)N2CCN(C(=O)C34CC5CC(CC(C5)C3)C4)CC2)c(F)c1 [N-{4-[4-(Adamantane-1-carbonyl)-piperazine-1-sulfonyl]-3-fluoro-phenyl}-acrylamide],100 to 1000 nM and < 100 nM
11,C=CC(=O)Nc1ccc(S(=O)(=O)N2CCN(C(=O)C34CC5CC(CC(C5)C3)C4)CC2)cc1 [N-{4-[4-(Adamantane-1-carbonyl)-piperazine-1-sulfonyl]-phenyl}-acrylamide],100 to 1000 nM and < 100 nM
12,C=CC(=O)Nc1ccc(S(=O)(=O)N2CCN(C(=O)N3CCC4CCCCC4C3)CC2)cc1 (centres unmarked) [N-{4-[4-(Octahydro-isoquinoline-2-carbonyl)-piperazine-1-sulfonyl]-phenyl}-acrylamide],100 to 1000 nM and < 100 nM
13,C=CC(=O)Nc1ccc(S(=O)(=O)N2CCN(C(=O)N3CCCC4CCCCC43)CC2)cc1 (centres unmarked) [N-{4-[4-(Octahydro-quinoline-1-carbonyl)-piperazine-1-sulfonyl]-phenyl}-acrylamide],100 to 1000 nM and < 100 nM
14,C=CC(=O)Nc1ccc(S(=O)(=O)N2CCN(C(=O)N3CCCCC3)CC2)cc1 [N-{4-[4-(Piperidine-1-carbonyl)-piperazine-1-sulfonyl]-phenyl}-acrylamide],100 to 1000 nM and < 100 nM
15,C=CC(=O)Nc1ccc(S(=O)(=O)N2CCC(C(=O)N3CCCCC3)CC2)cc1 [N-{4-[4-(Piperidine-1-carbonyl)-piperidine-1-sulfonyl]-phenyl}-acrylamide],100 to 1000 nM and < 100 nM
16,C=CC(=O)Nc1ccc(S(=O)(=O)N2CCN(C(=O)N3CCCC3)CC2)cc1 [N-{4-[4-(Pyrrolidine-1-carbonyl)-piperazine-1-sulfonyl]-phenyl}-acrylamide],100 to 1000 nM and < 100 nM

# Source: US8946197B2, “Transglutaminase TG2 inhibitors, pharmaceutical compositions, and methods of use thereof” (CHDI Foundation, Inc., priority 2009, dated 2015)
